Measured values reported in ChEMBL document CHEMBL5329224, “Structure-Based Design and Evaluation of Reversible KRAS G13D Inhibitors” (ACS Med Chem Lett, 2024).

Experiments:
[1] = target: GTPase KRas (Homo sapiens, UniProt P01116, G13D); experiment: Inhibition of Biotinylated KRAS G13D mutant (unknown origin) incubated for 20 mins in presence of BODIPY-GDP by HTRF assay
[2] = Selectivity ratio of IC50 for inhibition of Biotinylated KRAS G13D mutant (unknown origin) to IC50 for inhibition of Biotinylated wild type KRAS (unknown origin)
[3] = Volume of distribution at steady state in CD-1 mouse at 1 mg/kg,iv measured upto 9 hrs by LC-MS/MS analysis; type: ADME, organism-based; settings: in vivo
[4] = test system: HCT-116; experiment: Antiproliferative activity against human HCT-116 cells assessed as cell growth inhibition incubated for 7 days by Cell Titer-Glo luminescent assay; type: functional, cell-based; settings: HCT-116, 168 h
[5] = Half life in CD-1 mouse at 1 mg/kg,iv measured upto 9 hrs by LC-MS/MS analysis; type: ADME, organism-based; settings: in vivo
[6] = Dissociation constant, pKa of compound; type: physicochemical

Chain of GTPase KRas (P01116 whole entry G13D): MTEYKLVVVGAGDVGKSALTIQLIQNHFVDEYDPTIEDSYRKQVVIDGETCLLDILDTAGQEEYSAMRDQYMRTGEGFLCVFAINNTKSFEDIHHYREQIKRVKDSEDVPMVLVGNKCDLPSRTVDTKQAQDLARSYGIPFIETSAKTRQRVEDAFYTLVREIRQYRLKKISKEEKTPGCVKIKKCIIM

SMILES | IC50 [1] [nM] | Ratio IC50 [2] | other results
C=C1CN2CCC[C@@]2(COc2nc(N3CCN(C(=O)/C=C/c4cccc5c4CNC(C)(C)C5)C[C@@H]3C)c3cc(Cl)c(-c4nc(N)cc(C)c4C(F)(F)F)c(F)c3n2)C1 | 460 | 16 | 
Cc1cc(N)nc(-c2cc3nc(OC[C@@H]4CCCN4C)nc4c3c(c2Cl)OC[C@@H]2CN(C(=O)C3CCC5(CNC5)O3)CCN42)c1C(F)(F)F (mixture of isomers) | 1600 | 2.5 | 
Cc1cc(N)nc(-c2cc3nc(OC[C@@H]4CCCN4C)nc4c3c(c2Cl)OC[C@@H]2CN(C(=O)C[C@H]3CCC35CNC5)CCN42)c1C(F)(F)F | 3500 | 1.1 | 
C=C1CN2CCC[C@@]2(COc2nc(N3CCN(C(=O)/C=C/c4cccc5c4CN4CCC5C4)C[C@@H]3C)c3cc(Cl)c(-c4nc(N)cc(C)c4C(F)(F)F)c(F)c3n2)C1 (stereo in doubt; form 1) [listing 1 of 2 here] |  | 29 | 
C=C1CN2CCC[C@@]2(COc2nc3c4c(c(Cl)c(-c5nc(N)cc(C)c5C(F)(F)F)c(F)c4n2)OC[C@@H]2CN(C(=O)/C=C/c4nccc5c4CNCC5)CCN32)C1 | 1.5 |  | Vdss [3]: 0.42 L/kg; IC50 [4]: 6.1 µM; t1/2 [5]: 3.2 h
Cc1cc(N)nc(-c2cc3nc(OC[C@@H]4CCCN4C)nc4c3c(c2Cl)OC[C@@H]2CN(C(=O)[C@@H]3CC[C@H]3N)CCN42)c1C(F)(F)F | 3000 | 1.5 | 
COC1CC(N)(C(=O)N2CCN3c4nc(OC[C@@H]5CCCN5C)nc5cc(-c6nc(N)cc(C)c6C(F)(F)F)c(Cl)c(c45)OC[C@@H]3C2)C1 (mixture of isomers) | 880 | 1.5 | 
C=C1CN2CCC[C@@]2(COc2nc(N3CCN(C(=O)/C=C/c4cccc5c4CN4CCC5C4)C[C@@H]3C)c3cc(Cl)c(-c4nc(N)cc(C)c4C(F)(F)F)c(F)c3n2)C1 (stereo in doubt; form 1) [listing 2 of 2 here] | 410 |  | 
C=C1CN2CCC[C@@]2(COc2nc(N3CCN(C(=O)/C=C/c4cc(CNC)c(C)cn4)C[C@@H]3C)c3cc(Cl)c(-c4nc(N)cc(C)c4C(F)(F)F)c(F)c3n2)C1 | 500 | 9.6 | 
C=C1CN2CCC[C@@]2(COc2nc(N3CCN(C(=O)/C=C/c4cccc5c4CNCC5)C[C@@H]3C)c3cc(Cl)c(-c4nc(N)cc(C)c4C(F)(F)F)c(F)c3n2)C1 | 690 |  | Vdss [3]: 0.9 L/kg; IC50 [4]: 2.1 µM; t1/2 [5]: 7.6 h
Cc1cc(N)nc(-c2cc3nc(OC[C@@H]4CCCN4C)nc4c3c(c2Cl)OC[C@@H]2CN(C(=O)C3CC(N)CCO3)CCN42)c1C(F)(F)F (mixture of isomers) | 14000 | 0.41 | 
Cc1cc(N)nc(-c2cc3nc(OC[C@@H]4CCCN4C)nc4c3c(c2Cl)OC[C@@H]2CN(C(=O)C3CCNCC3)CCN42)c1C(F)(F)F | 3200 | 2.2 | 
Cc1cc(N)nc(-c2cc3nc(OC[C@@H]4CCCN4C)nc4c3c(c2Cl)OC[C@@H]2CN(C(=O)CCC3CCNC3)CCN42)c1C(F)(F)F (mixture of isomers) | 2100 | 2 | 
C=C1CN2CCC[C@@]2(COc2nc3c4c(c(Cl)c(-c5nc(N)cc(C)c5C(F)(F)F)cc4n2)OC[C@@H]2CN(C(=O)/C=C/c4nccc5c4CNCC5)CCN32)C1 | 13 | 7.3 | 
Cc1cc(N)nc(-c2cc3nc(OC[C@@H]4CCCN4C)nc4c3c(c2Cl)OC[C@@H]2CN(C(=O)CC[C@H]3CCCCN3)CCN42)c1C(F)(F)F | 2000 | 2.3 | 
C=C1CN2CCC[C@@]2(COc2nc(N3CCN(C(=O)/C=C/c4cc(CN(C)C)c(C)cn4)C[C@@H]3C)c3cc(Cl)c(-c4nc(N)cc(C)c4C(F)(F)F)c(F)c3n2)C1 | 520 | 9.2 | 
Cc1cc(N)nc(-c2cc3nc(OC[C@@H]4CCCN4C)nc4c3c(c2Cl)OC[C@@H]2CN(C(=O)CC[C@@H]3CCCCN3)CCN42)c1C(F)(F)F | 1700 | 2.5 | 
C=C1CN2CCC[C@@]2(COc2nc(N3CCN(C(=O)/C=C/c4cccc5c4CN4CCC5C4)C[C@@H]3C)c3cc(Cl)c(-c4nc(N)cc(C)c4C(F)(F)F)c(F)c3n2)C1 (stereo in doubt; form 2) [listing 1 of 2 here] |  | 27 | 

SMILES | IC50 [1] [nM] | Ratio IC50 [2] | other results
Cc1cc(N)nc(-c2cc3nc(OC[C@@H]4CCCN4C)nc4c3c(c2Cl)OC[C@@H]2CN(C(=O)C3CC35CNC5)CCN42)c1C(F)(F)F (mixture of isomers) | 2400 | 1.3 | 
Cc1cc(N)nc(-c2cc3nc(OC[C@@H]4CCCN4C)nc4c3c(c2Cl)OC[C@@H]2CN(C(=O)/C=C/c3nccc5c3CNCC5)CCN42)c1C(F)(F)F | 180 | 6.1 | 
Cc1cc(N)nc(-c2cc3nc(OC[C@@H]4CCCN4C)nc4c3c(c2Cl)OC[C@@H]2CN(C(=O)C3CC35CCNCC5)CCN42)c1C(F)(F)F (mixture of isomers) | 2400 | 2.1 | 
Cc1cc(N)nc(-c2cc3nc(OC[C@@H]4CCCN4C)nc4c3c(c2Cl)OC[C@@H]2CN(C(=O)C#CC3CCNC3)CCN42)c1C(F)(F)F (mixture of isomers) | 1600 | 2.3 | 
Cc1cc(N)nc(-c2cc3nc(OC[C@@H]4CCCN4C)nc4c3c(c2Cl)OC[C@@H]2CN(C(=O)C[C@@H]3CCNC3)CCN42)c1C(F)(F)F | 2600 | 2.1 | 
C=C1CN2CCC[C@@]2(COc2nc(N3CCN(C(=O)/C=C/c4cc(CNC)ccn4)C[C@@H]3C)c3cc(Cl)c(-c4nc(N)cc(C)c4C(F)(F)F)c(F)c3n2)C1 | 530 | 5.7 | pKa [6]: 8.4
Cc1cc(N)nc(-c2cc3nc(OC[C@@H]4CCCN4C)nc4c3c(c2Cl)OC[C@@H]2CN(C(=O)CC3CCNCC3)CCN42)c1C(F)(F)F | 4800 | 2 | 
Cc1cc(N)nc(-c2cc3nc(OC[C@@H]4CCCN4C)nc4c3c(c2Cl)OC[C@@H]2CN(C(=O)CCC3(N)CCOC3)CCN42)c1C(F)(F)F (mixture of isomers) | 1300 | 2.5 | 
C=C1CN2CCC[C@@]2(COc2nc(N3CCN(C(=O)/C=C/c4cc(C5CCN(C)CC5)c(C)cn4)C[C@@H]3C)c3cc(Cl)c(-c4nc(N)cc(C)c4C(F)(F)F)c(F)c3n2)C1 | 340 | 15 | 
Cc1cc(N)nc(-c2cc3nc(OC[C@@H]4CCCN4C)nc4c3c(c2Cl)OC[C@@H]2CN(C(=O)CCN)CCN42)c1C(F)(F)F | 2700 | 2.5 | 
C=C1CN2CCC[C@@]2(COc2nc(N3CCN(C(=O)/C=C/c4cc(CN5CCOCC5)ccn4)C[C@@H]3C)c3cc(Cl)c(-c4nc(N)cc(C)c4C(F)(F)F)c(F)c3n2)C1 | 4.1 | 1.2 | pKa [6]: 5.4
C=C1CN2CCC[C@@]2(COc2nc(N3CCN(C(=O)/C=C/c4cccc5c4CN4CCC5C4)C[C@@H]3C)c3cc(Cl)c(-c4nc(N)cc(C)c4C(F)(F)F)c(F)c3n2)C1 (stereo in doubt; form 2) [listing 2 of 2 here] | 550 |  | 
C=C1CN2CCC[C@@]2(COc2nc3c4c(c(Cl)c(-c5nc(N)cc(C)c5C(F)(F)F)cc4n2)OC[C@@H]2CN(C(=O)/C=C/c4nccc5c4CN(C)CC5)CCN32)C1 | 49 | 0.88 | 
Cc1cc(N)nc(-c2c(Cl)c3c4c(ncnc4c2F)N2CCN(C(=O)/C=C/c4nccc5c4CNCC5)C[C@H]2CO3)c1C(F)(F)F | 2700 | 5.9 | 
Cc1cc(N)nc(-c2cc3nc(OC[C@@H]4CCCN4C)nc4c3c(c2Cl)OC[C@@H]2CN(C(=O)[C@H](C)N(C)C)CCN42)c1C(F)(F)F | 8200 | 0.94 | 
Cc1cc(N)nc(-c2cc3nc(OC[C@@H]4CCCN4C)nc4c3c(c2Cl)OC[C@@H]2CN(C(=O)CC3CC5(CCC5)CN3)CCN42)c1C(F)(F)F (mixture of isomers) | 9000 | 1.1 | 
Cc1cc(N)nc(-c2cc3nc(OC[C@@H]4CCCN4C)nc4c3c(c2Cl)OC[C@@H]2CN(C(=O)C3(N)CC3)CCN42)c1C(F)(F)F | 550 | 1.8 | 
Cc1cc(N)nc(-c2cc3nc(OC[C@@H]4CCCN4C)nc4c3c(c2Cl)OC[C@@H]2CN(C(=O)CC[C@@]3(C)CCCN3)CCN42)c1C(F)(F)F | 1900 | 2.4 | 
